Where “and” joins values, the source holds several entries; their conditions need not be identical. Identical values can stand only once. Entries after “also recorded” stand apart in the source; their conditions may differ.
Assays:
B cells = settings: rats; cited from earlier work
anti-dsDNA = settings: murine models of SLE; cited from earlier work
SLE patients [1] = assay: Documented renal flares, Phase II/III study; assay type: in vivo, human
Protocol: (§1) The primary endpoint was the time to a documented renal flare, defined as reproducible increases from baseline in 24-hr proteinuria or serum creatinine >20% or at least 0.3 mg/dL, whichever was greater, accompanied by proteinuria, hematuria and/or red cell casts; or new onset or reproducible increase in hematuria accompanied by either an increase in 24-hr proteinuria or new red cell casts. Secondary outcome measures included the number of renal flares, time to institution of therapy with high dose corticosteroids (HDCC) and/or cyclophosphamide, incidence of treatment with HDCC and/or cyclophosphamide, and number of major SLE flares. HDCC was defined as an increase in oral, intravenous or intramuscular prednisone (or prednisone equivalent) greater than or equal to 15 mg per day from baseline to a dose greater than 20 mg per day for more than two days or any dose exceeding 200 mg in a single day. Topical, intra-articular, intra-lesional, or intra-ocular corticosteroid administration was excluded.
(§2) The incidences of renal flares in patients of both sustained reduction group and the other group were documented and the results are shown in Table 7 for Phase III and Table 8 for Phase II/III.

SLE patients [2] = assay: SF-36 health-related quality of life, Phase II/III (90-05) trial of LJP 394 vs placebo; assay type: in vivo, human; settings: for Longitudinal Role Emotional and MCS scores vs placebo: available data only
Protocol: Patients were excluded if they had evidence of a renal flare within three months of screening; were receiving prednisone or prednisone equivalent >20 mg/day, azathioprine >200 mg/day, methotrexate >25 mg/wk and/or cyclophosphamide at any dose within three months of screening; or a serum creatinine level ≧2.5 mg/dL. The study was conducted in the US and Europe according to Good Clinical Practices and all patients provided voluntary informed consent.
A pharmacodynamic assay has been developed to measure the binding affinity of patients' anti-dsDNA antibodies to LJP 394 (Sem D S, et al. (1999) Arch Biochem Biophys 372:62-8; McNeeley Pa., et al. (2001) Lupus 10:526-532). The assay measures the binding of the total serum immunoglobulin G [IgG] fraction to the dsDNA epitope on LJP 394. Binding of IgG to the LJP 394 epitope is measured using surface plasmon resonance and the concentration required to reach half maximal binding is determined. This concentration defines the apparent Kd′ of the binding interaction and reflects the titer-weighted average affinity of the patient's IgG fraction for the LJP 394 epitope. Using this assay, patients were segregated into “high affinity” and “low affinity” subgroups. The segregation value was selected by comparing the affinity measured before exposure to LJP 394 with that following 16 weekly treatments with LJP 394 100 mg or placebo. The high-affinity (HA) population was defined as those patients with antibody binding affinities [Kd′]≦0.8 mg/mL pre-treatment.
In this double-blind, randomized controlled, multicenter trial, intravenously administered LJP 394 was compared with placebo in SLE patients with prior renal involvement. Patients were randomized to receive LJP 394 100 mg as a 2 ml bolus intravenous injection on a weekly basis or placebo for 76 weeks. After initiation of the trial, the protocol was amended to include 8 week off treatment periods alternating with 12 weekly treatments with 50 mg (1 ml bolus injection) LJP 394 or placebo. The first 16 weeks, when patients received 100 mg LJP 394 or placebo weekly, was considered the ‘induction period’, followed by ‘maintenance,’ when patients alternated 8 off and 12 weeks on treatment. The 20-week cycles were to be repeated three times for a total of 60 weeks.
as §1
As a secondary objective, the SF-36 was included in the protocol for analysis, on an exploratory basis, to evaluate and interpret changes in health-related quality of life with active treatment compared with placebo. An additional secondary objective was to evaluate changes in health-related quality of life before and after a documented renal flare, with or without prior treatment with HDCC. The SF-36 was administered at baseline and weeks 16, 24, 36, 44, 56, 64, 76, or at early treatment withdrawal. All patients with a baseline and at least one post treatment health-related quality of life assessment were included in the analyses. […]

SLE patients [3] = assay: Documented renal flares, Phase III study; assay type: in vivo, human
Protocol: The primary endpoint was time to renal flare. A renal flare was defined as a significant, reproducible increase in serum creatinine, urine protein or blood in the urine as described in Example 2. The secondary endpoint was time to treatment with HDCC. HDCC was defined as any dose of cyclophosphamide or an increase in prednisone of 15 mg/day or higher resulting in a final dose greater than 20 mg/day.
as §2

[4] = High Affinity, no flares, induction phase
[5] = High affinity population, baseline (pre-treatment)
[6] = High affinity population, baseline to Week 16
[7] = ITT population, baseline (pre-treatment)
[8] = ITT population, baseline to Week 16
[9] = ITT, no flares, induction phase
[10] = Phase II/III, before renal flare
[11] = active treatment, pre vs post renal flare
[12] = patients with documented renal flare (n=37), before flare

In the case of “abetimus sodium (sense GTGTGTGTGTGTGTGTGTGT; antisense CACACACACACACACACACA; sense: DNA, backbone not given here; antisense: DNA, backbone and methylation of C not given here; four deoxynucleotide duplexes bound to triethylene glycol valency platform) [LJP 394, tetravalent conjugate: four (CA)10.(TG)10 double-stranded 20-mer oligonucleotides on a triethylene glycol based valency platform]”, the “Induction of antigen-specific B-cell tolerance” value (B cells) is listed as “induce antigen-specific B-cell tolerance”, the “Effect on anti-dsDNA titers” value (anti-dsDNA) is listed as “selectively reduces anti-dsDNA titers” and the “# Renal flares in Other patients” value (SLE patients [1]; Phase II/III) is listed as 6. The “# Renal flares in patients with sustained reduction” value (SLE patients [1]; Phase II/III) was 1, the “Time to and number of renal flares compared with placebo” value (SLE patients [1]; high affinity population) was “significant reduction” and the “Time to renal flare between treatment groups” value (SLE patients [1]; intent-to-treat population, interim analysis) was “unlikely to reach statistical significance”. The “Difference in Role Emotional change scores between treatment groups” value (SLE patients [2]; [4]) was 13.2, the “Difference in Social Functioning change scores between treatment groups” value (SLE patients [2]; [4]) was 5.5 and the “SF-36 MCS Baseline Mean” value (SLE patients [2]; [5]) was 48.21. For the same substance, the “SF-36 PCS Baseline Mean” value (SLE patients [2]; [5]) was 41.13, the “Difference between MCS change scores, active vs placebo” value (SLE patients [2]; [6]) was 2.2 points and the “Difference in Role Emotional change scores, active vs placebo” value (SLE patients [2]; [6]) was 15.9 points. The “Difference in Role Physical change scores, active vs placebo” value (SLE patients [2]; [6]) was 8.5 points, the “Difference in Social Functioning change scores, active vs placebo” value (SLE patients [2]; [6]) was 5.0 and the “Magnitude of differences between active and placebo on Role Physical” value (SLE patients [2]; [6]) was 4.4 points. The “Mean change in SF-36 Social Functioning score” value (SLE patients [2]; [6]) was 4.9 points, the “SF-36 MCS Mean % Change” value (SLE patients [2]; [6]) was 6.10% and the “SF-36 MCS Mean Change” value (SLE patients [2]; [6]) was 1.49. The “SF-36 PCS Mean % Change” value (SLE patients [2]; [6]) was 7.17%, the “SF-36 PCS Mean Change” value (SLE patients [2]; [6]) was 1.88 and the “Patients reporting improvements in Role Emotional scores greater than the MCID” value (SLE patients [2]; ITT population, Week 16) was 24.2%. For the same substance, the “Baseline Role Emotional score” value (SLE patients [2]; [7]) was 69.1, the “SF-36 MCS Baseline Mean” value (SLE patients [2]; [7]) was 48.9 and 48.91 and the “SF-36 PCS Baseline Mean” value (SLE patients [2]; [7]) was 41.0 and 41.03. For the same substance, the “Difference in MCS change, active vs placebo” value (SLE patients [2]; [8]) was 2.1, the “Difference in Role Emotional change scores, active vs placebo” value (SLE patients [2]; [8]) was 15.8 points and the “Difference in Role Physical change scores, active vs placebo” value (SLE patients [2]; [8]) was 8.9 points. For the same substance, the “SF-36 MCS Mean % Change” value (SLE patients [2]; [8]) was 5.53%, the “SF-36 MCS Mean Change” value (SLE patients [2]; [8]) was 1.29 and the “SF-36 PCS Mean % Change” value (SLE patients [2]; [8]) was 6.70%. The “SF-36 PCS Mean Change” value (SLE patients [2]; [8]) was 1.76, the “Difference in Social Functioning change scores between treatment groups” value (SLE patients [2]; ITT, induction phase (16 weeks)) was 4.7 and the “Difference in Role Emotional change scores between treatment groups” value (SLE patients [2]; ITT, no HDCC, induction phase) was 9.7. The “Difference in Social Functioning change scores between treatment groups” value (SLE patients [2]; ITT, no HDCC, induction phase) was 5.9, the “Difference in Role Emotional change scores between treatment groups” value (SLE patients [2]; [9]) was 12.3 and the “Difference in Social Functioning change scores between treatment groups” value (SLE patients [2]; [9]) was 5.0. For the same substance, the “Mean SF-36 domain scores after renal flare compared with placebo” value (SLE patients [2]; Phase II/III, after renal flare) was “remained better than placebo patients; also recorded: higher for LJP394-treated patients in all domains”, the “Mean SF-36 Pain domain score before renal flare” value (SLE patients [2]; [10]) was 60.13 and the “Mean SF-36 domain scores before renal flare compared with placebo” value (SLE patients [2]; [10]) was “better scores than placebo in all domains except pain”. The “Mean SF-36 domain scores before renal flare compared with placebo” value (SLE patients [2]; Phase II/III, before renal flare, listed as LJP394) was “higher for LJP394-treated patients in all domains except pain”, the “SF-36 domain score changes pre/post renal flare compared with placebo” value (SLE patients [2]; Phase II/III, pre vs post renal flare) was “stabilization or improvement in all but one domain” and the “SF-36 domain score changes pre/post renal flare compared with placebo” value (SLE patients [2]; Phase II/III, pre vs post renal flare, listed as LJP394) was “all eight domains were more favorable; also recorded: all 8 domains were more favorable”. For the same substance, the “Change in Bodily Pain domain score before to after documented renal flare” value (SLE patients [2]; [11]) was 12.3 points, the “Change in Role Emotional domain score before to after documented renal flare” value (SLE patients [2]; [11]) was 2.1 and the “Change in Social Functioning domain score before to after documented renal flare” value (SLE patients [2]; [11]) was 2.3. For the same substance, the “Change in Vitality domain score before to after documented renal flare” value (SLE patients [2]; [11]) was 4.1, the “Longitudinal Role Emotional and MCS scores vs placebo” value (SLE patients [2]; after the 16 week induction phase) was “marked improvement” and the “Longitudinal Role Emotional and MCS scores vs placebo” value (SLE patients [2]; by week 36 of treatment) was “comparable between the two groups”. The “Role Emotional scores difference, LJP 394 versus placebo” value (SLE patients [2]; patients with data pre- and post-renal flares) was 20.2 points, the “Pre-flare difference between treatment groups in MCS summary score” value (SLE patients [2]; [12]) was 4.1 points and the “Pre-flare difference between treatment groups in Role Emotional score” value (SLE patients [2]; [12]) was 15.0 points. For the same substance, the “Pre-flare difference between treatment groups in Vitality score” value (SLE patients [2]; [12]) was 9.5 points, the “Post-flare difference in Role Emotional scores favoring active treatment” value (SLE patients [2]; patients with documented renal flare, post-flare) was 37.7 points and the “# Renal flares in Other patients” value (SLE patients [3]) was 14. The “# Renal flares in patients with sustained reduction” value (SLE patients [3]) was 3.
